Data from paper PMC8184751, “Proline/arginine dipeptide repeat polymers derail protein folding in amyotrophic lateral sclerosis” (Nature Communications, 2021).
Entries after “also recorded” stand apart in the source; their conditions may differ.

Experiments:
PPIA [1] = biological target: T1, PPIA (Homo sapiens, UniProt P62937); test: NMR titration of 15N-labeled PPIA with dipeptide repeat polymers (1H-15N HSQC); type: binding; conditions: for Arg55 csp / Arg55 I/I0 (titration, SI Fig 2b): 40 µM 15N-PPIA; for Arg55 csp / I/I0 of the HSQC cross-peak of PPIA residue 55 (SI Fig 2a) / Arg55 I/I0 (titration, SI Fig 2b): pH 7.4, 298 K; for I/I0 of the HSQC cross-peak of PPIA residue 55 (SI Fig 2a): eightfold excess of peptide (320 µM) over 40 µM 15N-PPIA; for binding to PPIA judged from NMR signals: eightfold excess of peptide over PPIA, 1H-15N HSQC
T1 construct: His-tag (cleaved yes); made in house; host or cells: Escherichia coli BL21(DE3)
Method: Titration of ^15N-labeled PPIA with dipeptide repeat polymers (PR20, GR20, GP20, AP20, PR10, PR5, and PR2) were carried out in 25 mM HEPES buffer with 100 mM NaCl, 2 mM DTT, 0.01% NaN3, and 10% D20 at pH 7.4. For 40 µM protein, the ligand concentrations were increased from 0 to 320 µM in five steps. For the PPIA/GP20 and PPIA/AP20 titrations, the concentration of the repeat polymer was further increased up to 3200 µM. Two-dimensional ^15N-^1H HSQC spectra[41] were acquired at 298 K for each PPIA/repeat polymer ratio.
Kd calculations for the interactions of PPIA with PR repeats (PR5, PR10, and PR20) were made from the dipeptide repeat polymer-induced variations in PPIA cross-peak intensities, using the equation for slow exchange regime interactions:1 1−I/I0=Imax(Kd+P+x)−Kd+P+x^2−4×P×x/2P where I is the intensity of PPIA peaks in the presence of increasing ligand concentrations, I0 is the intensity of free protein, P is the total concentration of protein, x is the concentration of ligand, and Kd is the dissociation constant.
The error in 1−(I/I0) is taken to be the error in the experimental quantity of I/I0 and has been calculated from the noise in HSQC spectra according to2 σI/I0=I/I0σI0/I0^2+σ(I)/I^2 where σ(I/Io) is the error in I/I0, σ(Io) and σ(I) are the noise (RMS value of background noise from various regions) in the HSQC spectrum of PPIA alone and that of PPIA in the presence of ligand, respectively.
In case of the PPIA/GP20- and PPIA/AP20 interactions, the Kd value was calculated from the equation for fast exchange interactions using chemical shift perturbations (CSP) according to3 CSP=CSPmax(Kd+P+x)−(Kd+P+x)^2−4×P×x/2P where4 CSP=(δH)^2+δN/6.5^2
Imax and CSPmax were treated as independent free fit parameters for the residues. The error value in the Kd is the standard error of fitting.

PPIA [2] = biological target: T1, PPIA; test: PPIA-catalysed refolding of urea-unfolded RNaseT1 (tryptophan fluorescence); type: biochemical
Method: (§1) RNaseT1 (purchased from Thermo Fischer) was unfolded by incubating in 6.9 M urea at 10 °C for 2 h in 100 mM Tris-HCl buffer at pH 8. Refolding of RNaseT1 was initiated by diluting it 35 times with same buffer such that the final concentration of RNaseT1 was 2.27 µM and urea 0.197 M. Tryptophan fluorescence emission was measured at 320 nm (excitation wavelength = 280 nm) during refolding for 1 h on a Cary Eclipse Fluorescence Spectrophotometer at 10 °C. In experiments with PR20, PPIA, or both, they were added to the dilution buffer and incubated at 10 °C for 2 h prior to mixing. Data were normalized and averaged for graphical representation. The exponential constants, k, for the increasing fluorescence intensities were obtained from fitting a mono-exponential function to the experimental data in Graph Pad Prism.

RNaseT1 = biological target: T2, RNaseT1 (Aspergillus oryzae, UniProt P00651); test: Refolding of RNaseT1 without PPIA (self-folding control with PR20); type: biochemical; conditions: for exponential folding rate constant k of RNaseT1, no PPIA: Rnase T1:PR20=1:175, no CypA, same conditions
T2 construct: purchased Thermo Fischer
T2 sequence (P00651 27-130): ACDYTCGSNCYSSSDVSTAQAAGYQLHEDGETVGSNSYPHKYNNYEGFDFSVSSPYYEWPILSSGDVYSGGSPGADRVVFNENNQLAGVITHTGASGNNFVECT
Method: as §1

PPIA [3] = conditions: read-out: binding affinity to the enzyme; cited from earlier work
prolyl isomerase PPIA [4] = biological target: T3, prolyl isomerase PPIA (human, UniProt P62937 2-164); test: NMR titration; 40 µM 15N-labeled PPIA titrated with repeat polymer from 0 to 320 µM in five steps; 1H-15N HSQC at 298 K; 25 mM HEPES, 100 mM NaCl, 2 mM DTT, pH 7.4; Kd from the attenuation of the cross-peak of Arg55 (equation for slow exchange); conditions: both partners purified
T3 construct: human PPIA (peptidyl-prolyl cis-trans isomerase A, cyclophilin A); gene cloned into a modified pET28a vector; 15N-labeled for the NMR titrations, unlabeled for ITC, crystallography and folding assays; source: E. coli BL21(DE3), purified (Ni-NTA, TEV cleavage, Superdex 75); 15N-labeled in M9 minimal media for NMR

prolyl isomerase PPIA [5] = biological target: T3, prolyl isomerase PPIA; test: ITC; 44 µM PPIA in the cell titrated with 650 µM PR20 in the syringe; 10 °C; 25 mM HEPES, 100 mM NaCl, 1 mM TCEP, pH 7.4; number of binding sites fixed to one; conditions: both partners purified
prolyl isomerase PPIA [6] = biological target: T3, prolyl isomerase PPIA; test: NMR titration; 40 µM 15N-labeled PPIA titrated with GP20 or AP20 up to 3200 µM; 1H-15N HSQC at 298 K; 25 mM HEPES, 100 mM NaCl, 2 mM DTT, pH 7.4; Kd from chemical shift perturbations (equation for fast exchange); conditions: both partners purified

T3 sequence (P62937 2-164): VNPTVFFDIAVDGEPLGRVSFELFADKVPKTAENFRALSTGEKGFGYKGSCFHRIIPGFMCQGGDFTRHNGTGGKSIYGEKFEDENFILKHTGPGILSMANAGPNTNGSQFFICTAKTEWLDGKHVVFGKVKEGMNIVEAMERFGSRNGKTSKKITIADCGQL
T1 sequence (P62937 whole entry): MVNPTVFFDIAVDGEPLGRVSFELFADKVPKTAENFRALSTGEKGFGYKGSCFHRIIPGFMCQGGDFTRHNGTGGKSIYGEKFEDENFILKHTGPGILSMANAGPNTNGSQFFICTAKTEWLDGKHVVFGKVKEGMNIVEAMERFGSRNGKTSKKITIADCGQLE

Ac-APAPAPAPAPAPAPAPAPAPAPAPAPAPAPAPAPAPAPAP-NH2 [AP20]
Arg55 csp (PPIA [1]; peptide conc. 32 uM): 0.009725 | Arg55 csp (PPIA [1]; peptide conc. 160 uM): 0.03975 | Arg55 csp (PPIA [1]; peptide conc. 320 uM): 0.06372 | Arg55 csp (PPIA [1]; peptide conc. 640 uM): 0.09595 | Arg55 csp (PPIA [1]; peptide conc. 1280 uM): 0.1279 | Arg55 csp (PPIA [1]; peptide conc. 3200 uM): 0.1597

Ac-GPGPGPGPGPGPGPGPGPGPGPGPGPGPGPGPGPGPGPGP-NH2 [GP20]
Arg55 csp (PPIA [1]; peptide conc. 32 uM): 0.002383 | Arg55 csp (PPIA [1]; peptide conc. 96 uM): 0.006761 | Arg55 csp (PPIA [1]; peptide conc. 160 uM): 0.01147 | Arg55 csp (PPIA [1]; peptide conc. 320 uM): 0.01968 | Arg55 csp (PPIA [1]; peptide conc. 640 uM): 0.034 | Arg55 csp (PPIA [1]; peptide conc. 1280 uM): 0.04768 | Arg55 csp (PPIA [1]; peptide conc. 2560 uM): 0.06404 | Arg55 csp (PPIA [1]; peptide conc. 3200 uM): 0.07024

Ac-PRPRPRPRPR-NH2 [PR5]
Kd (PPIA [1]): 48.5 µM | I/I0 of the HSQC cross-peak of PPIA residue 55 (SI Fig 2a) (PPIA [1]): 0.1037

Ac-PRPRPRPRPRPRPRPRPRPR-NH2 [PR10]
Kd (PPIA [1]): 27.1 µM | I/I0 of the HSQC cross-peak of PPIA residue 55 (SI Fig 2a) (PPIA [1]): 0.1506

Ac-PRPRPRPRPRPRPRPRPRPRPRPRPRPRPRPRPRPRPRPR-NH2 [PR20]
exponential folding rate constant k of RNaseT1 (PPIA [2]; Rnase T1:CypA:PR20=1:0.033:7, 2.27 µM RNaseT1, 100 mM Tris-HCl pH 8, 10 °C, fluorescence 320 nm, mono-exponential fit, independent experiment 1 of 3): 0.2834 | exponential folding rate constant k of RNaseT1 (PPIA [2]; Rnase T1:CypA:PR20=1:0.033:7, same conditions, independent experiment 2 of 3): 0.2936 | exponential folding rate constant k of RNaseT1 (PPIA [2]; Rnase T1:CypA:PR20=1:0.033:7, same conditions, independent experiment 3 of 3): 0.3078 | exponential folding rate constant k of RNaseT1 (PPIA [2]; Rnase T1:CypA:PR20=1:0.033:20, 2.27 µM RNaseT1, pH 8, 10 °C, mono-exponential fit, independent experiment 1 of 3): 0.2235 | exponential folding rate constant k of RNaseT1 (PPIA [2]; Rnase T1:CypA:PR20=1:0.033:20, same conditions, independent experiment 2 of 3): 0.3061 | exponential folding rate constant k of RNaseT1 (PPIA [2]; Rnase T1:CypA:PR20=1:0.033:20, same conditions, independent experiment 3 of 3): 0.2847 | exponential folding rate constant k of RNaseT1 (PPIA [2]; Rnase T1:CypA:PR20=1:0.033:46, 2.27 µM RNaseT1, pH 8, 10 °C, mono-exponential fit, independent experiment 1 of 3): 0.2129 | exponential folding rate constant k of RNaseT1 (PPIA [2]; Rnase T1:CypA:PR20=1:0.033:46, same conditions, independent experiment 2 of 3): 0.2303 | exponential folding rate constant k of RNaseT1 (PPIA [2]; Rnase T1:CypA:PR20=1:0.033:46, same conditions, independent experiment 3 of 3): 0.2811 | exponential folding rate constant k of RNaseT1 (PPIA [2]; Rnase T1:CypA:PR20=1:0.033:175, 2.27 µM RNaseT1, pH 8, 10 °C, mono-exponential fit, independent experiment 1 of 3): 0.1927 | exponential folding rate constant k of RNaseT1 (PPIA [2]; Rnase T1:CypA:PR20=1:0.033:175, same conditions, independent experiment 2 of 3): 0.1913 | exponential folding rate constant k of RNaseT1 (PPIA [2]; Rnase T1:CypA:PR20=1:0.033:175, same conditions, independent experiment 3 of 3): 0.202 | effect on the catalyzing effect of PPIA on RNaseT1 folding (PPIA [2]; increasing PR20: 7, 20, 46, 175 times excess over RNaseT1): inhibited the catalyzing effect of PPIA in a dose-dependent manner | exponential folding rate constant k of RNaseT1, no PPIA (RNaseT1; independent experiment 2 of 3): 0.1365 | exponential folding rate constant k of RNaseT1, no PPIA (RNaseT1; independent experiment 3 of 3): 0.1365 | refolding kinetics of RNaseT1 in the presence of PR20, no PPIA (RNaseT1; large excess of PR20, 10 °C, pH 8): unchanged | I/I0 of the HSQC cross-peak of PPIA residue 55 (SI Fig 2a) (PPIA [1]): -0.02438 | Arg55 I/I0 (titration, SI Fig 2b) (PPIA [1]; ligand conc 9.6 uM): 0.211 | Arg55 I/I0 (titration, SI Fig 2b) (PPIA [1]; ligand conc 32 uM): 0.472 | Arg55 I/I0 (titration, SI Fig 2b) (PPIA [1]; ligand conc 96 uM): 0.746 | Arg55 I/I0 (titration, SI Fig 2b) (PPIA [1]; ligand conc 160 uM): 0.931 | Arg55 I/I0 (titration, SI Fig 2b) (PPIA [1]; ligand conc 320 uM): 1.02

GR20: 20-dipeptide glycine/arginine repeat polymer, acetylated and amidated termini
binding to PPIA judged from NMR signals (PPIA [1]): does not bind to PPIA | Arg55 I/I0 (titration, SI Fig 2b) (PPIA [1]; ligand conc 9.6 uM): 0.0912 | Arg55 I/I0 (titration, SI Fig 2b) (PPIA [1]; ligand conc 32 uM): 0.0182 | Arg55 I/I0 (titration, SI Fig 2b) (PPIA [1]; ligand conc 96 uM): -0.00762 | Arg55 I/I0 (titration, SI Fig 2b) (PPIA [1]; ligand conc 160 uM): 0.124 | Arg55 I/I0 (titration, SI Fig 2b) (PPIA [1]; ligand conc 320 uM): -0.0665

PR2: two PR dipeptides, the four-residue peptide, acetylated and amidated termini (Ac-PRPR-NH2)
I/I0 of the HSQC cross-peak of PPIA residue 55 (SI Fig 2a) (PPIA [1]): 0.9376 | binding to PPIA judged from NMR signals (PPIA [1]): does not efficiently bind; also recorded: abrogated the binding to PPIA

cyclosporin A
Kd (PPIA [3]): 0.013 ± 0.004 µM

B1: PR repeat polymer with five PR dipeptides (PR5) (peptide)
peptide: Ac-PRPRPRPRPR-NH2
notes: source: synthetic peptide (solid-phase peptide synthesis)
Kd (prolyl isomerase PPIA [4]): 49 µM

B2: PR repeat polymer with 20 repeats (PR20) (peptide)
peptide: Ac-PRPRPRPRPRPRPRPRPRPRPRPRPRPRPRPRPRPRPRPR-NH2
notes: dipeptide repeat polymer translated from the C9orf72 hexanucleotide repeat expansion; Only eight residues of the polymer could be built in the asymmetric unit of PDB 7ABT; also called 20-dipeptide polymer PR20; 20-repeat PR polymer; source: synthetic peptide (solid-phase peptide synthesis)
Kd (prolyl isomerase PPIA [5]): ~50 µM | Kd (prolyl isomerase PPIA [4]): 23 µM

B3: PR repeat polymer with ten PR dipeptides (PR10) (peptide)
peptide: Ac-PRPRPRPRPRPRPRPRPRPR-NH2
notes: as for B1
Kd (prolyl isomerase PPIA [4]): 27 µM

B4: dipeptide repeat polymer GP20 (peptide)
peptide: Ac-GPGPGPGPGPGPGPGPGPGPGPGPGPGPGPGPGPGPGPGP-NH2
notes: also called glycine/proline repeat polymer; source: synthetic peptide (solid-phase peptide synthesis)
Kd (prolyl isomerase PPIA [6]): 1190 µM

B5: dipeptide repeat polymer AP20 (peptide)
peptide: Ac-APAPAPAPAPAPAPAPAPAPAPAPAPAPAPAPAPAPAPAP-NH2
notes: also called alanine/proline repeat polymer; source: synthetic peptide (solid-phase peptide synthesis)
Kd (prolyl isomerase PPIA [6]): 597 µM
